Measurements taken from patent US20260284165A1, “COMPOSITIONS AND METHODS FOR TREATMENT OR P[…] OF CANCER INCLUDING TRIPLE NEGATIVE BREAST CANCER AND/OR LUNG CANCER” (The Medical College of Wisconsin, Inc., priority 2023, published 2026).

tested on: splenocytes; test: IFNγ ELISPOT in splenocytes, cyclin E2 and KIF15 epitopes; assay type: cell-based, mice; conditions: after four immunizations
Description: We developed both cyclin E2 and KIF15 MHC-II vaccines using the multi-scoring system to identify immunogenic epitopes (Table 4). […] This multi-antigen preventive vaccine should also help overcome antigen-negative variant escape that has been observed with single antigen vaccines. Currently, a mRNA vaccine is also in development that contains the epitopes of TOP2A, cyclin E2 or KIF15 and will test its efficacy and immune response in relevant preclinical animal models.

| Sequence | type I immunity (IFNγ ELISPOT) |
| --- | --- |
| AAALCHFTSIEVVKK [p298] | elicited type I immunity |
| VVKSTSPVKLKTFKK [p334] | elicited type I immunity |
| SHNLRGVIPRSFEYL [p129] | elicited type I immunity |
